Experiments:
[1] = Diarrheal effects in rats; details: rat, in vivo, po
Description: Briefly, adult Charles River male rats weighing 210-230 g were individually housed and fasted with water available ad libitum for 24 hours prior to the test. The animals (N=6-12) received logarithmically graded prostaglandin doses orally. Immediately after administration, the animals were returned to their cages, and diarrhea, if any, was assessed on an all or none basis for 8 hours after drug treatment. The ED50 and relative potency values were calculated by the logistic method of Berkson.

IgG2a = assay: Serum IgG2a in anti-IgD stimulated mice (two site sandwich ELISA, Assay C); format: in vivo, mouse (Balb/c female)
Description: (§1) Sera from mice treated with compounds in accordance with the method of the invention are analyzed for levels of IgG1, IgG2a, IgG3, and IgM.
Measurement of mouse IgG2a by a two site sandwich ELISA is performed in substantial accordance with the teaching of Assay B except with the following changes. NuncImmulon II plates are used in this assay. The IgG2a standard is purchased from Southern Biotech. The standard curve is linear between 4-250 ng/ml. Serum containing IgG2a is diluted 1/6400 to 1/1,000,000. About a 1/6,000 dilution of goat anti mouse IgG2a (Southern Biotech) conjugated to alkaline phosphatase is used.
(§2) Sera from the mice described in Example 13 are analyzed for the levels of IgG1, IgG2a, and IgG3 by Assays B, C, and D, respectively.
(§3) Two groups of 4 Balb/c female mice per group are injected with both 100 μg FF1-4D5 antibody and 100 μg H∂A1 antibody. One of these groups is a stimulated control designated Group B. On day 3 and 4, the other group is injected with 40 μg (±) methyl 11α, 16-dihydroxy-1-methyl-9-oxoprosta-4Z,13E-dien-1-oate. Another group is injected with only PBS as an unstimulated control (Group A). On day -1 and 8, 50-100 μl of serum is recovered and analyzed for IgE, IgG1 and IgG2a by Assays A, B, and C, respectively.
(§4) 3 groups of 4 Balb/c female mice per group are injected with both 100 μg FF1-4D5 antibody and 100 μg H∂A1 antibody on day 0. Group A is given no further treatment. On day 3 and 4, one group of mice is injected with 20 μg (±) methyl 2-[2-[3R-3α-hydroxy-2β-(4-hydroxy-4-methyl-1E-octenyl-5-oxo-1α-cyclopentyl]-methyl]cyclopropanebutanoate (Group B) and another group with 20 μg (±) methyl 2-[2-[3R-3α-hydroxy-2β-(4-hydroxy-4-methyl-1E-octenyl)-5-oxo-1α-cyclopentyl]ethyl]cyclopropanepropanoate (Group C) as in Example 13. On day -1 and 8, 50-100 μl of serum is recovered and analyzed for IgE, IgG1, IgG2a and IgG3 by Assays A, B, C and D, respectively. The selectivity of inhibition of IgE is shown in Table 12.
(§5) Three groups of 5 Balb/c female mice per group are injected with both 100 μg FF1-4D5 antibody and 100 μg H∂A1 antibody on day 0. Group A is a control with no further treatment. On day 3 and 4, the mice are injected with 20 μg (±) methyl 11α,16-dihydroxy-4,4,16-trimethyl-9-oxoprosta-13E-en-1-oate (Group B) or 20 μg (±) methyl 11α,16-dihydroxy-16-methyl-9-oxoprosta-3,5Z,13E-trien-1-oate (Group C) as in Example 13. On day -1 and 8, […] of serum is recovered and analyzed for IgE, IgG1, IgG2a, IgG3 and IgM by Assays A, B, C, D and E, respectively.

IgG1 = assay: Serum IgG1 in anti-IgD stimulated mice (two site sandwich ELISA, Assay B); format: in vivo, mouse (Balb/c female)
Description: as §1
Mouse IgG1 measurement by a two site sandwich ELISA is as follows. About 5 μg of rabbit anti mouse IgG (Organon-Teknika-Cappel, Malvern, Pa.) is attached to the wells of a NuncImmulon 96 well plate and IgG1 levels are determined in substantial accordance with Assay A except with the following changes. The IgG1 standard is purchased from Southern BioTech, Birmingham, Ala., and stored at 10 μg/ml in 2% NBS in PBS at 4° C. The standard curve is prepared by diluting the mouse IgG1 standard in 0.05% Tween-80 in PBS, and is linear between 3.9 and 250 ng/ml. Serum containing IgG1 is diluted 1/10,000 to 1/1,000,000 in 0.05% Tween 80-PBS, to place the measurement within the standard curve. Standard IgG1 (or diluted serum) is incubated at about 37° C. for 1 hour and the plates are washed with 0.05% Tween 80-PBS as described in Assay A. About a 1/3,000 dilution of Goat anti mouse IgG1 (Southern Biotech, Birmingham, Ala.) conjugated to alkaline phosphatase in 0.05% Tween 80-PBS is added to each well and incubated at about 37° C. for 60 minutes. The plate is washed and colorimetric substrate, prepared as described by the manufacturer (Alkaline Phosphatase Substrate System, KPL, Gaithersburg, Md.), is added and optical density and data analysis is performed in the same manner as Assay A.
as §2, §3, §4, §5

IgG3 = assay: Serum IgG3 in anti-IgD stimulated mice (two site sandwich ELISA, Assay D); format: in vivo, mouse (Balb/c female)
IgE = assay: ED50 for inhibition of IgE calculated from the examples; format: in vivo, mouse; details: dose to achieve 50% inhibition of IgE
Description: From the data in the above examples, the effective dose of each prostaglandin to achieve 50% inhibition of IgE (ED50) was calculated.

[2] = 2 μg IP days 3 and 4, day -1 baseline before treatment
[3] = 5 μg IP days 3 and 4, day -1 baseline before treatment
[4] = 10 μg IP days 3 and 4, day -1 baseline before treatment
[5] = 20 μg IP days 3 and 4, day -1 baseline before treatment
[6] = 40 μg IP days 3 and 4, day -1 baseline before treatment

CCCCC(C)(O)C/C=C/[C@H]1[C@H](O)CC(=O)[C@@H]1C/C=C\CCCC(=O)OC (mixture of isomers) [(±) methyl 11α,16-dihydroxy-16-methyl-9-oxoprosta-5Z,13E-dien-1-oate]
TD50 at 8 h [1]: 0.173 mg/kg | IgG2a ± SD (IgG2a; 2 μg IP days 3 and 4, day 7 (control 139)): 114 ± 61 µg/mL | IgG2a ± SD (IgG2a; 2 μg IP days 3 and 4, day 8 (control 554)): 277 ± 111 µg/mL | IgG2a ± SD (IgG2a; 2 μg IP days 3 and 4, day 9 (control 923)): 1053 ± 256 µg/mL | IgG2a ± SD (IgG2a; 2 μg IP days 3 and 4, day 11 (control 951)): 1124 ± 219 µg/mL | IgG2a ± SD (IgG2a; [2]): 25 ± 25 µg/mL | IgG2a ± SD (IgG2a; 5 μg IP days 3 and 4, day 7): 133 ± 67 µg/mL | IgG2a ± SD (IgG2a; 5 μg IP days 3 and 4, day 8): 481 ± 192 µg/mL | IgG2a ± SD (IgG2a; 5 μg IP days 3 and 4, day 9): 1093 ± 245 µg/mL | IgG2a ± SD (IgG2a; 5 μg IP days 3 and 4, day 11): 1540 ± 201 µg/mL | IgG2a ± SD (IgG2a; [3]): 58 ± 66 µg/mL | IgG2a ± SD (IgG2a; 10 μg IP days 3 and 4, day 7): 107 ± 45 µg/mL | IgG2a ± SD (IgG2a; 10 μg IP days 3 and 4, day 8): 276 ± 168 µg/mL | IgG2a ± SD (IgG2a; 10 μg IP days 3 and 4, day 9): 855 ± 117 µg/mL | IgG2a ± SD (IgG2a; 10 μg IP days 3 and 4, day 11): 1097 ± 289 µg/mL | IgG2a ± SD (IgG2a; [4]): 26 ± 7 µg/mL | IgG2a ± SD (IgG2a; 20 μg IP days 3 and 4, day 7): 182 ± 105 µg/mL | IgG2a ± SD (IgG2a; 20 μg IP days 3 and 4, day 8): 493 ± 187 µg/mL | IgG2a ± SD (IgG2a; 20 μg IP days 3 and 4, day 9): 1170 ± 285 µg/mL | IgG2a ± SD (IgG2a; 20 μg IP days 3 and 4, day 11): 2133 ± 862 µg/mL | IgG2a ± SD (IgG2a; [5]): 29 ± 9 µg/mL | IgG2a ± SD (IgG2a; 40 μg IP days 3 and 4, day 7): 81 ± 12 µg/mL | IgG2a ± SD (IgG2a; 40 μg IP days 3 and 4, day 8): 433 ± 314 µg/mL | IgG2a ± SD (IgG2a; 40 μg IP days 3 and 4, day 9): 1177 ± 383 µg/mL | IgG2a ± SD (IgG2a; 40 μg IP days 3 and 4, day 11): 1667 ± 675 µg/mL | IgG2a ± SD (IgG2a; [6]): 23 ± 1 µg/mL | IgG1 ± SD (IgG1; 40 μg IP days 3 and 4, day 8): 15666 ± 2300 µg/mL | IgG1 ± SD (IgG1; [6]): 175 ± 32 µg/mL | IgG3 ± SD (IgG3; 2 μg IP days 3 and 4, day 7 (control 227)): 370 ± 229 µg/mL | IgG3 ± SD (IgG3; 2 μg IP days 3 and 4, day 8 (control 519)): 882 ± 310 µg/mL | IgG3 ± SD (IgG3; 2 μg IP days 3 and 4, day 9 (control 510)): 741 ± 475 µg/mL | IgG3 ± SD (IgG3; 2 μg IP days 3 and 4, day 11 (control 465)): 687 ± 152 µg/mL | IgG3 ± SD (IgG3; [2]): 70 ± 10 µg/mL | IgG3 ± SD (IgG3; 5 μg IP days 3 and 4, day 7): 464 ± 161 µg/mL | IgG3 ± SD (IgG3; 5 μg IP days 3 and 4, day 8): 640 ± 46 µg/mL | IgG3 ± SD (IgG3; 5 μg IP days 3 and 4, day 9): 649 ± 232 µg/mL | IgG3 ± SD (IgG3; 5 μg IP days 3 and 4, day 11): 559 ± 162 µg/mL | IgG3 ± SD (IgG3; [3]): 109 ± 44 µg/mL | IgG3 ± SD (IgG3; 10 μg IP days 3 and 4, day 7): 494 ± 267 µg/mL | IgG3 ± SD (IgG3; 10 μg IP days 3 and 4, day 8): 789 ± 264 µg/mL | IgG3 ± SD (IgG3; 10 μg IP days 3 and 4, day 9): 760 ± 340 µg/mL | IgG3 ± SD (IgG3; 10 μg IP days 3 and 4, day 11): 802 ± 216 µg/mL | IgG3 ± SD (IgG3; [4]): 68 ± 2 µg/mL | IgG3 ± SD (IgG3; 20 μg IP days 3 and 4, day 7): 446 ± 266 µg/mL | IgG3 ± SD (IgG3; 20 μg IP days 3 and 4, day 8): 1075 ± 453 µg/mL | IgG3 ± SD (IgG3; 20 μg IP days 3 and 4, day 9): 1636 ± 275 µg/mL | IgG3 ± SD (IgG3; 20 μg IP days 3 and 4, day 11): 1288 ± 156 µg/mL | IgG3 ± SD (IgG3; [5]): 77 ± 10 µg/mL | IgG3 ± SD (IgG3; 40 μg IP days 3 and 4, day 7): 236 ± 84 µg/mL | IgG3 ± SD (IgG3; 40 μg IP days 3 and 4, day 8): 639 ± 104 µg/mL | IgG3 ± SD (IgG3; 40 μg IP days 3 and 4, day 9): 1048 ± 167 µg/mL | IgG3 ± SD (IgG3; 40 μg IP days 3 and 4, day 11): 1044 ± 115 µg/mL | IgG3 ± SD (IgG3; [6]): 68 ± 6.5 µg/mL | ED50 IgE Inhibition (IgE): 1.0 μg/mouse/TID

CCCCC(C)(O)C/C=C/[C@H]1[C@H](O)CC(=O)[C@@H]1C/C=C\C=CCC(=O)OC (relative stereo) [(±) methyl 11α,16-dihydroxy-16-methyl-9-oxoprosta-3,5Z,13-trien-1-oate]
TD50 at 8 h [1]: 0.57 mg/kg | inhibition of IgG2a (IgG2a; 20 μg days 3 and 4, Example 25): not IgG1, IgG2a, IgG3 and IgM | IgG2a ± SD (IgG2a; Table 14, 20 μg days 3 and 4, day 8 (control 1246)): 1202 ± 338 µg/mL | inhibition of IgG1 (IgG1; 20 μg days 3 and 4, Example 25): not IgG1, IgG2a, IgG3 and IgM | IgG1 ± SD (IgG1; Table 14, 20 μg days 3 and 4, day 8 (control 21703)): 18320 ± 4695 µg/mL | inhibition of IgG3 (IgG3; 20 μg days 3 and 4, Example 25): not IgG1, IgG2a, IgG3 and IgM | IgG3 ± SD (IgG3; Table 14, 20 μg days 3 and 4, day 8 (control 1538)): 1709 ± 429 µg/mL | ED50 IgE Inhibition (IgE): 6.5 μg/mouse/TID

From patent US5157052A, “Method for inhibiting IgE production” (priority 1990, dated 1992)
